Consider 21 molecules from US20230045421A1 (priority 2018, published 2023).

Read-outs that look alike come from different tables or passages of the source.

In this assay the test system is HBV rcDNA. Briefly: HepDE19 assay with bDNA quantitation of HBV rcDNA. Type of assay: cell-based, hepatitis B virus. The procedure, abridged: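 HepDE19 cells (HepG2-derived, Tet-regulated HBV replication) were deprived of tetracycline and then exposed to compounds for 7 days at 37 °C in 0.5% DMSO, 8-point titration from 25 μM. rcDNA was quantified by bDNA and EC50/EC90 came from 4-parameter fits. CC50 was measured by CellTiter-Glo ATP content on replicate plates after 4 days.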

Where [1] appears, read: HepDE19 assay, inhibition of formation of relaxed circular DNA (rcDNA), bDNA quantitation, read-out: DE-19bDNA EC50.
[2] abbreviates: HepDE19 assay, inhibition of formation of rcDNA, read-out: DE-19bDNA EC50.
Setting [3] is: read-out: DE-19bDNA EC50, HepDE19 assay, inhibition of formation of relaxed circular DNA (rcDNA), bDNA quantitation.

Regarding `CC(c1c[nH]c(=O)c2c(F)c(F)ccc12)N(C)C(=O)Nc1ccc(F)c(C(F)F)c1` (single isomer, unassigned) [Compound 504, 1-(1-(7,8-Difluoro-1-oxo-1,2-dihydroisoquinolin-4-yl)ethyl)-3-(3-(difluoromethyl)-4-fluorophenyl)-1-methylurea], under setting [1], the EC50 was determined as 0.015 µM.

Take `CC(c1c[nH]c(=O)c2c(F)cc(F)cc12)N(CCCO)C(=O)Nc1ccc(F)cc1` (single isomer, unassigned) [Compound 377, 1-(1-(6,8-Difluoro-1-oxo-1,2-dihydroisoquinolin-4-yl)ethyl)-3-(4-fluorophenyl)-1-(3-hydroxypropyl) urea]: under setting [1], the concentration giving a half-maximal response (EC50) was found to be 11 µM.

Take `CC(NC(=O)Nc1ccc(F)c(Cl)c1)c1c[nH]c(=O)c2ccccc12` (single isomer, unassigned) [Compound 11, 1-(3-Chloro-4-fluorophenyl)-3-(1-(1-oxo-1,2-dihydroisoquinolin-4-yl)ethyl)urea]: the EC50 under setting [2] is 4.7 µM.

Turning to `CC(c1c[nH]c(=O)c2ccc(F)cc12)N(CC1COC(C)(C)OC1)C(=O)Nc1ccc(F)c(Cl)c1` (single isomer, unassigned) [Compound 282, 3-(3-Chloro-4-fluorophenyl)-1-((2,2-dimethyl-1,3-dioxan-5-yl)methyl)-1-(1-(6-fluoro-1-oxo-1,2-dihydroisoquinolin-4-yl)ethyl)urea], the half-maximal effective concentration (EC50) under setting [1] came out at 4 µM.

Turning to `CCOCCN(C(=O)Nc1ccc(F)c(Cl)c1)C(C)c1c[nH]c(=O)c2ccccc12` (single isomer, unassigned) [Compound 109, 3-(3-Chloro-4-fluorophenyl)-1-(2-ethoxyethyl)-1-(1-(1-oxo-1,2-dihydroisoquinolin-4-yl)ethyl)urea], the concentration giving a half-maximal response (EC50) (read-out: DE-19bDNA EC50, HepDE19 assay, inhibition of formation of rcDNA) stood at 8 µM.

For `CCN(Cc1cn(C)c(=O)c2ccccc12)C(=O)Nc1ccc(F)c(Cl)c1` [Compound 18, 3-(3-Chloro-4-fluorophenyl)-1-ethyl-1-((2-methyl-1-oxo-1,2-dihydroisoquinolin-4-yl)methyl)urea], for the setting “Hepatitis B virus, HepDE19, HepDE19 assay, inhibition of formation of rcDNA, read-out: DE-19bDNA EC50”, the EC50 amounted to 0.26 µM.

`CC(c1c[nH]c(=O)c2ccc(F)cc12)N(CC1COC(C)(C)OC1)C(=O)Nc1ccc(F)c(Cl)c1` (single isomer, unassigned) [Compound 283, 3-(3-Chloro-4-fluorophenyl)-1-((2,2-dimethyl-1,3-dioxan-5-yl)methyl)-1-(1-(6-fluoro-1-oxo-1,2-dihydroisoquinolin-4-yl)ethyl)urea]: the EC50 under setting [1] is 0.043 µM.

For the molecule `CC(=O)NCCN(C(=O)Nc1ccc(F)c(Cl)c1)C(C)c1c[nH]c(=O)c2ccccc12` (single isomer, unassigned) [Compound 139, N-(2-(3-(3-Chloro-4-fluorophenyl)-1-(1-(1-oxo-1,2-dihydroisoquinolin-4-yl)ethyl)ureido)ethyl)acetamide], the EC50 under setting [2] worked out at 0.46 µM.

As to `CC(c1c[nH]c(=O)c2c(F)c(F)ccc12)N(C)C(=O)NCc1ccccc1` (single isomer, unassigned) [Compound 453, 3-Benzyl-1-(1-(7,8-difluoro-1-oxo-1,2-dihydroisoquinolin-4-yl)ethyl)-1-methylurea], under “Hepatitis B virus, HepDE19, read-out: DE-19bDNA EC50 (μM), HepDE19 assay, inhibition of formation of relaxed circular DNA (rcDNA), bDNA quantitation”, the EC50 is 0.29 µM.

With `CCN(C(=O)Nc1ccc(F)c(F)c1)C(C)c1c[nH]c(=O)c2cc(F)c(F)cc12` (single isomer, unassigned) [Compound 423, 1-(1-(6,7-Difluoro-1-oxo-1,2-dihydroisoquinolin-4-yl)ethyl)-3-(3,4-difluorophenyl)-1-ethylurea], the EC50 under setting [1] is 0.021 µM.

`C[C@H](c1c[nH]c(=O)c2ccccc12)N(C)C(=O)Nc1ccnc(Cl)c1` [Compound 94, (R)-3-(2-Chloropyridin-4-yl)-1-methyl-1-(1-(1-oxo-1,2-dihydroisoquinolin-4-yl)ethyl)urea]: the EC50 (Hepatitis B virus, HepDE19, read-out: DE-19bDNA EC50 (μM), HepDE19 assay, inhibition of formation of rcDNA) came to 1 µM.

For `CC(c1cnc(NCc2ncn(C)n2)c2ccccc12)N(C)C(=O)Nc1ccc(F)c(Cl)c1` (single isomer, unassigned) [Compound 246, 3-(3-Chloro-4-fluorophenyl)-1-methyl-1-(1-(1-(((1-methyl-1H-1,2,4-triazol-3-yl)methyl)amino)isoquinolin-4-yl)ethyl)urea], under setting [2], the EC50 stood at 0.14 µM.

Consider `CC(c1c[nH]c(=O)c2cc(F)c(F)cc12)N(C)C(=O)Nc1cc(Cl)cc(Cl)c1` (single isomer, unassigned) [Compound 416, 3-(3,5-Dichlorophenyl)-1-(1-(6,7-difluoro-1-oxo-1,2-dihydroisoquinolin-4-yl)ethyl)-1-methylurea], for which the EC50 under setting [3] was found to be 10 µM.

`CC(c1cnc(OCc2ncn(C)n2)c2cc(F)c(F)cc12)N(CCCO)C(=O)Nc1ccc(F)c(Cl)c1` (single isomer, unassigned) [Compound 348, 3-(3-chloro-4-fluorophenyl)-1-(1-(6,7-difluoro-1-((1-methyl-1H-1,2,4-triazol-3-yl)methoxy)isoquinolin-4-yl)ethyl)-1-(3-hydroxypropyl)urea]: under setting [1], the EC50 turned out to be 1.1 µM.

For `CC(c1c[nH]c(=O)c2c(F)c(F)ccc12)N(CCS(N)(=O)=O)C(=O)Nc1ccc(F)cc1` (single isomer, unassigned) [Compound 394, 2-(1-(1-(7,8-Difluoro-1-oxo-1,2-dihydroisoquinolin-4-yl)ethyl)-3-(4-fluorophenyl)ureido)ethane-1-sulfonamide], the EC50 under setting [1] was found to be 10 µM.

Turning to `Cc1cc(NC(=O)N(C)C(C)c2c[nH]c(=O)c3c(F)c(F)ccc23)ccc1F` (single isomer, unassigned) [Compound 441, 1-(1-(7,8-Difluoro-1-oxo-1,2-dihydroisoquinolin-4-yl)ethyl)-3-(4-fluoro-3-methylphenyl)-1-methylurea], the EC50 under setting [1] was 0.008 µM.

Regarding `CC(c1c[nH]c(=O)c2ccc(F)cc12)N(CC(CO)CO)C(=O)Nc1ccc(F)c(Cl)c1` (single isomer, unassigned) [Compound 296, 3-(3-Chloro-4-fluorophenyl)-1-(1-(6-fluoro-1-oxo-1,2-dihydroisoquinolin-4-yl)ethyl)-1-(3-hydroxy-2-(hydroxymethyl)propyl)urea], under setting [1], the EC50 was 0.04 µM.

As to `CC(c1c[nH]c(=O)c2ccccc12)N(CCCC(=O)O)C(=O)Nc1ccc(F)c(Cl)c1` (single isomer, unassigned) [Compound 227, 4-(3-(3-Chloro-4-fluorophenyl)-1-(1-(1-oxo-1,2-dihydroisoquinolin-4-yl)ethyl)ureido)butanoic acid], the EC50 under setting [2] was determined as 4.9 µM.

On to `CC(c1cn(Cc2nc[nH]n2)c(=O)c2ccccc12)N(C)C(=O)Nc1ccc(F)c(Cl)c1` (single isomer, unassigned) [Compound 269, 1-(1-(2-((1H-1,2,4-Triazol-3-yl)methyl)-1-oxo-1,2-dihydroisoquinolin-4-yl)ethyl)-3-(3-chloro-4-fluorophenyl)-1-methylurea], for which the concentration for a half-maximal effect (EC50) under setting [2] is 0.56 µM.

On to `CC(c1c[nH]c(=O)c2ccccc12)N(Cc1nccs1)C(=O)Nc1ccc(F)c(Cl)c1` (single isomer, unassigned) [Compound 311, 3-(3-Chloro-4-fluorophenyl)-1-(1-(1-oxo-1,2-dihydroisoquinolin-4-yl)ethyl)-1-(thiazol-2-ylmethyl)urea], for which the EC50 under setting [1] is 0.066 µM.

In the case of `CC(c1c[nH]c(=O)c2cc(F)c(F)cc12)N(C)C(=O)Nc1ccccc1F` (single isomer, unassigned) [Compound 421, 1-(1-(6,7-Difluoro-1-oxo-1,2-dihydroisoquinolin-4-yl)ethyl)-3-(2-fluorophenyl)-1-methylurea], the EC50 under setting [3] was 17 µM.

Broadly, the EC50 is the concentration at which the effect is half-maximal.
